According to patent publication US12280090B2, “Antimicrobial peptides” (priority 2018, dated 2025):
Values after ≈ are worked out from the molar mass of the structure shown. Where two headings read alike, the source gives them in different places. Bridge positions count the residues as written; N and C are the ends. Peptide text beside a SMILES is read from it.

Legend:
Format in all cases: cell-based
[1] = test system: Escherichia coli: ATCC 9723H
Description: (§1) Microtiter broth dilution assays. HP2, HP3, and HP5 peptides are comprised of novel sequences that have not yet been described in the AMP literature. A common method for establishing antimicrobial activity of peptides is to perform microtiter broth assays. Microtiter broth dilution methods were implemented for determination of the minimum inhibitory concentration (MIC) and minimum bactericidal concentration (MBC). HP3 and HP5 were tested in addition to Ranatuerin-1/HP4 peptide as a positive control. HP2 could not be tested because multiple peptide synthesis attempts failed. The human cathelicidin, LL-37^30 was used as an additional positive control, and an unrelated similarly sized cationic peptide from the T. pallidum protein Tp0751 was used as a negative control. The potential AMPs were tested against bacteria representative of all three types of known cell envelope (Gram-positive, negative, and the complex and unique mycobacterial cell wall/envelope), given that a major mechanism used by AMPs is cell wall/membrane targeting.
(§2) Microtiter broth dilution assays. To test for antimicrobial activity, HP3, HP4/Ranatuerin-1, and HP5, peptides were synthesized by GenScript (Piscataway, New Jersey, USA). HP2 was not tested because the service provider was unable to synthesize this peptide despite multiple attempts. An unrelated, similarly-sized peptide from the Treponema pallidum protein Tp0751^55 was used as a negative control and the human cathelicidin, LL-37^30, was included as a positive control. Peptides were dissolved in filter-sterilized ultrapure water and tested for sterility by plating on non-selective agar plates followed by a 48 h incubation at 37° C. Two-fold serial dilutions of each peptide were prepared to obtain a series corresponding to ten times the required testing concentrations (2560, 1280, 640, 320, 160, 80, 40, 20, 10, and 5 μg/mL)^29.
(§3) Microtiter broth dilution methods were implemented for determination of the minimum inhibitory concentration (MIC) and minimum bactericidal concentration (MBC) of the four putative AMPs and the negative control peptide using procedures adapted from the R.E.W. Hancock Laboratory for cationic AMPs^29 and the CLSI methods for dilution antimicrobial susceptibility tests^56.
(§4) To assess antimicrobial activity across a diverse range of bacterial species, colonies were cultured overnight on Mueller Hinton agar plates (MHA; +5% sheep blood for S. pyogenes)^56 from frozen glycerol stock. Bacteria tested include Gram-negative rods (Escherichia coli: ATCC 9723H; Pseudomonas aeruginosa: ATCC 10148), Gram-positive cocci (Staphylococcus aureus: ATCC 6538P; Streptococcus pyogenes: unknown strain, hospital isolate), and Mycobacterium smegmatis (MC^2155; classified as neither Gram-positive nor Gram-negative). Bacterial suspensions were prepared by placing 3-5 morphologically similar colonies from the grown plate into sterile glass culture tubes containing 2 mL of Mueller Hinton Broth (MHB; +5% lysed horse blood for S. pyogenes) 56. Microbial inoculums from bacterial suspensions were prepared through a spectrophotometric adjustment of turbidity to 0.08-0.1 at 600 nm to achieve a turbidity equivalent to that of a 0.5 McFarland standard (1-2×10^8 CFU/mL)^29. The standardized bacterial inoculums were then diluted in MHB to obtain final cell densities of approximately […].
(§5) Ninety-six-well microtiter plates (Fisher Cat. No. CS003790; Nepean, Ontario, Canada) were prepared with 100 μL of E. coli, P. aeruginosa, S. aureus, S. pyogenes, or M. smegmatis bacterial suspension (5×10^5 CFU/mL) dispensed into each well of columns 1 through 11. Eleven microliters of the 10×AMP dilution series for all four peptides were added to each well from column 1 (2560 μg/mL) to column 10 (5 μg/mL) in all plates. Column 11 functioned as a positive control for bacterial growth in the absence of AMPs. Column 12 in each plate contained 100 μL of MHB as a sterility control (+5% lysed horse blood for S. pyogenes)^56. […]

[2] = test system: Pseudomonas aeruginosa: ATCC 10148
Description: as §1, §2, §3, §4, §5

[3] = test system: Staphylococcus aureus: ATCC 6538P
Description: as §1, §2, §3, §4, §5

[4] = test system: Streptococcus pyogenes: unknown strain, hospital isolate; settings: for inhibitory or bacteriostatic activity: S. pyogenes; for MBC / MIC: unknown strain, hospital isolate
Description: as §1, §2, §3, §4, §5

[5] = test system: Mycobacterium smegmatis (MC^2155)
Description: as §1, §2, §3, §4, §5

MIC ([1]; ATCC 9723) | MIC ([2]; ATCC 10148) [µg/mL] | MIC ([3]; ATCC 6538) | MIC [4] [µg/mL] | MIC ([1]; E. coli, listed as H4) [µg/mL] | MIC ([3]; S. aureus, listed as H4) [µg/mL] | MIC ([5]; Mycobacterium (MC^2155)) [µg/mL] | SMILES | MBC ([1]; ATCC 9723) [µg/mL] | inhibitory or bacteriostatic activity ([1]; E. coli) | MBC ([2]; ATCC 10148) [µg/mL] | inhibitory or bacteriostatic activity ([2]; P. aeruginosa) | MBC ([3]; ATCC 6538) [µg/mL] | inhibitory or bacteriostatic activity ([3]; S. aureus) | inhibitory or bacteriostatic activity [4] | MBC [4] [µg/mL] | bacteriostatic and bacteriocidal activity ([5]; M. smegmatis) | MBC ([2]; P. aeruginosa) [µg/mL] | MIC ([2]; P. aeruginosa) [µg/mL] | MBC ([5]; Mycobacterium (MC^2155)) [µg/mL]
>256 µg/mL | >256 | >256 µg/mL | >256 |  |  |  | CC(C)C[C@H](NC(=O)[C@H](CS)NC(=O)[C@@H]1CCCN1C(=O)[C@H](CCCCN)NC(=O)[C@H](CCCNC(=N)N)NC(=O)[C@@H]1CCCN1C(=O)[C@H](Cc1ccccc1)NC(=O)[C@H](CO)NC(=O)[C@H](CCCCN)NC(=O)[C@@H](NC(=O)[C@H](Cc1c[nH]c2ccccc12)NC(=O)[C@H](CS)NC(=O)CNC(=O)[C@H](CO)NC(=O)[C@H](CC(C)C)NC(=O)[C@@H](N)CO)[C@@H](C)O)C(=O)N[C@@H](CCCNC(=N)N)C(=O)N[C@@H](CC(N)=O)C(=O)N[C@@H](CCCNC(=N)N)C(=O)O [HP3, SLSGCWTKSFPRKPCLRNR] (H-SLSGCWTKSFPRKPCLRNR-OH; N-terminus and C-terminus assumed) | >256 | no effect | >256 | no effect | >256 | no effect | no effect | >256 |  |  |  | 
48 µM | >256 | 97 µM | >256 | 128 | 256 |  | CC[C@H](C)[C@H](NC(=O)[C@H](CCCCN)NC(=O)[C@H](CS)NC(=O)[C@H](C)NC(=O)[C@@H](NC(=O)[C@H](Cc1ccccc1)NC(=O)CNC(=O)[C@H](CC(C)C)NC(=O)CNC(=O)[C@@H](NC(=O)[C@H](CCCCN)NC(=O)CNC(=O)[C@H](CC(C)C)NC(=O)[C@H](CC(N)=O)NC(=O)[C@H](CCCCN)NC(=O)[C@H](CC(C)C)NC(=O)[C@@H](NC(=O)[C@H](CO)NC(=O)[C@H](CC(C)C)NC(=O)[C@H](CCSC)NC(=O)[C@@H](N)CO)C(C)C)C(C)C)C(C)C)C(=O)N[C@@H](CC(N)=O)C(=O)N[C@@H](CCCCN)C(=O)N[C@@H](CCC(N)=O)C(=O)N[C@@H](CS)C(=O)O [HP4] (H-SMLSVLKNLGKVGLGFVACKINKQC-OH; N-terminus and C-terminus assumed) |  |  | >256 | no effect |  |  | no effect | >256 |  |  |  | 
>256 µg/mL | >256 | >256 µg/mL | >256 |  |  |  | CC[C@H](C)[C@H](NC(=O)[C@H](CC(C)C)NC(=O)[C@H](CCCCN)NC(=O)[C@H](CCCCN)NC(=O)[C@H](CS)NC(=O)[C@H](CCCNC(=N)N)NC(=O)[C@H](CCC(=O)O)NC(=O)[C@@H](NC(=O)[C@@H]1CCCN1C(=O)[C@@H](NC(=O)[C@H](CCC(=O)O)NC(=O)[C@H](CO)NC(=O)[C@H](CS)NC(=O)[C@H](CCC(=O)O)NC(=O)[C@H](CCC(=O)O)NC(=O)[C@H](CCCCN)NC(=O)[C@@H](NC(=O)[C@H](CC(C)C)NC(=O)[C@H](CCC(=O)O)NC(=O)[C@H](CCC(=O)O)NC(=O)[C@H](CC(C)C)NC(=O)[C@H](C)NC(=O)[C@H](CCCNC(=N)N)NC(=O)[C@H](CC(C)C)NC(=O)[C@H](CC(N)=O)NC(=O)[C@H](CO)NC(=O)[C@@H]1CCCN1C(=O)[C@@H](N)CC(N)=O)C(C)C)[C@@H](C)CC)C(C)C)C(=O)N[C@@H](Cc1ccc(O)cc1)C(=O)NCC(=O)N[C@@H](Cc1ccc(O)cc1)C(=O)N[C@@H](CCCNC(=N)N)C(=O)N[C@@H](CCCCN)C(=O)O [HP5] (H-NPSNLRALEELVKEECSEIPVERCKKLIYGYRK-OH; N-terminus and C-terminus assumed) | >256 | no effect | >256 | no effect | >256 | no effect | no effect | >256 | weak bacteriostatic and bacteriocidal activity |  |  | 
 |  |  |  |  |  |  | CC[C@H](C)[C@H](NC(=O)[C@H](CCCCN)NC(=O)[C@H](CCC(=O)O)NC(=O)[C@H](CCCCN)NC(=O)[C@H](CO)NC(=O)[C@H](CCCCN)NC(=O)[C@H](CCCNC(=N)N)NC(=O)[C@H](Cc1ccccc1)NC(=O)[C@H](Cc1ccccc1)NC(=O)[C@H](CC(=O)O)NC(=O)CNC(=O)[C@H](CC(C)C)NC(=O)[C@@H](N)CC(C)C)C(=O)NCC(=O)N[C@@H](CCCCN)C(=O)N[C@@H](CCC(=O)O)C(=O)N[C@@H](Cc1ccccc1)C(=O)N[C@@H](CCCCN)C(=O)N[C@@H](CCCNC(=N)N)C(=O)N[C@H](C(=O)N[C@H](C(=O)N[C@@H](CCC(N)=O)C(=O)N[C@@H](CCCNC(=N)N)C(=O)N[C@H](C(=O)N[C@@H](CCCCN)C(=O)N[C@@H](CC(=O)O)C(=O)N[C@@H](Cc1ccccc1)C(=O)N[C@@H](CC(C)C)C(=O)N[C@@H](CCCNC(=N)N)C(=O)N[C@@H](CC(N)=O)C(=O)N[C@@H](CC(C)C)C(=O)N[C@H](C(=O)N1CCC[C@H]1C(=O)N[C@@H](CCCNC(=N)N)C(=O)N[C@H](C(=O)N[C@@H](CCC(=O)O)C(=O)N[C@@H](CO)C(=O)O)[C@@H](C)O)C(C)C)[C@@H](C)CC)C(C)C)[C@@H](C)CC [LL37 + ve_AcOH, reference compound] |  |  |  |  |  |  |  |  |  | >256 | >256 | 
16 µg/mL | >256 | 4 µg/mL |  |  |  | 4 (≈ 1.51 µM) | CC[C@H](C)[C@H](NC(=O)[C@H](Cc1ccccc1)NC(=O)[C@@H]1CCCN1C(=O)[C@H](CC(C)C)NC(=O)[C@@H](N)Cc1ccccc1)C(=O)N[C@@H](C)C(=O)N[C@@H](CCCNC(=N)N)C(=O)N[C@@H](CC(C)C)C(=O)N[C@@H](C)C(=O)N[C@@H](C)C(=O)N[C@@H](CCCCN)C(=O)N[C@H](C(=O)N[C@@H](Cc1ccccc1)C(=O)N1CCC[C@H]1C(=O)N[C@@H](CO)C(=O)N[C@H](C(=O)N[C@H](C(=O)N[C@H]1CSSC[C@@H](C(=O)O)NC(=O)[C@H](CCCCN)NC(=O)[C@H](CCCCN)NC(=O)[C@H]([C@@H](C)O)NC(=O)[C@H](C(C)C)NC(=O)[C@H](CO)NC1=O)[C@@H](C)CC)[C@@H](C)CC)C(C)C [Peptide R4] (H-FLPFIARLAAKVFPSIICSVTKKC-OH; disulfide 18-24; N-terminus and C-terminus assumed) | 16 (≈ 6.03 µM) |  | >256 |  | 4 (≈ 1.51 µM) |  |  |  |  |  |  | 4 (≈ 1.51 µM)
